# Patent US10123537B2, “Amide compound or salt thereof, agricultural and horticultural insecticide and microbicide comprising the compound, and method for using the insecticide and microbicide” (NIHON NOHYAKU CO., LTD., priority 2013, dated 2018)
# System: Meloidogyne incognita
# Assay: Nematicidal test on Meloidogyne incognita
# Format: in vivo
# Details: 500 ppm, 1 mL soil drench, potted melon seedlings, 8 days after inoculation
# Description: Nematicidal Test on Meloidogyne incognita
# Agrochemical formulations containing different amide compounds represented by the general formula (I) of the present invention or salts thereof as an active ingredient were separately diluted to a concentration of 500 ppm. The diluted agrochemical formulations (1 mL) were drenched into the soil around the foot of potted melon seedlings. At one day after the agrochemical treatment, an aqueous suspension of Meloidogyne incognita (about 500 worms/mL) was drenched into the soil for inoculation both in a treatment plot and in a non-treatment plot. The inoculated pots were kept in a greenhouse at 25° C. At 8 days after the inoculation, the root of each seedling was washed with water, the number of root nodules was counted, and the nematicidal effect was evaluated according to the following criteria.
# A: the percentage of the number of root nodules relative to the non-treatment plot is 0%.
# B: the percentage of the number of root nodules relative to the non-treatment plot is 1 to 10%.
# C: the percentage of the number of root nodules relative to the non-treatment plot is 11 to 20%.
# D: the percentage of the number of root nodules relative to the non-treatment plot is 21 to 50%.
row,SMILES,nematicidal effect (number of root nodules relative to non-treatment plot) activity level
1,CC[S+]([O-])c1cc(C(F)(F)F)ccc1C(=O)N(C)c1ccc(C(F)(C(F)(F)F)C(F)(F)F)cc1 (centres unmarked) [Compound 3-8],D or higher
2,CC[S+]([O-])c1cc(C(F)(F)F)ccc1C(=O)N(C)c1ccc(Cl)cc1 (centres unmarked) [Compound 3-22],D or higher
3,CCSc1cc(C(F)(F)F)ccc1C(=O)N(c1ccc(C(F)(F)F)cn1)C1CC1 [Compound 1-7],D or higher
4,CCS(=O)(=O)c1cc(C(F)(F)F)ccc1C(=O)N(C)c1ccc(C(F)(C(F)(F)F)C(F)(F)F)nc1 [Compound 1-24],D or higher
5,CCSc1cc(C(F)(F)F)cnc1C(=O)N(CC)c1ccc(C(F)(F)F)cn1 [Compound 1-10],D or higher
6,CCSc1cc(C(F)(F)F)cnc1C(=O)N(c1ccc(C(F)(F)F)cn1)C1CC1 [Compound 1-13],D or higher
7,CCSc1cc(C(F)(F)F)ccc1C(=O)N(C)c1ccc(C(F)(C(F)(F)F)C(F)(F)F)cc1 [Compound 3-7],D or higher
8,CCSc1cc(C(F)(F)F)ccc1C(=O)N(C)c1ccc(OC(F)(F)F)cc1 [Compound 3-12],D or higher
9,CCS(=O)(=O)c1cc(C(F)(F)F)ccc1C(=O)N(C)c1ccc(C(F)(C(F)(F)F)C(F)(F)F)cn1 [Compound 1-21],D or higher
10,CCN(C(=O)c1ncc(C(F)(F)F)cc1S(=O)(=O)CC)c1ccc(C(F)(F)F)cn1 [Compound 1-12],D or higher
11,CCS(=O)(=O)c1cc(C(F)(F)C(F)(F)F)ccc1C(=O)N(C)c1ccc(C(F)(F)F)cn1 [Compound 1-44],D or higher
12,CCS(=O)(=O)c1cc(C(F)(F)F)ccc1C(=O)N(C)c1ccc(C(F)(F)F)nn1 [Compound 2-3],D or higher
13,CCSc1cc(C(F)(F)F)ccc1C(=O)N(C)c1ccc(C(F)(F)F)nn1 [Compound 2-1],D or higher

# System: wheat powdery mildew fungus Erysiphe graminis
# Assay: not given
# Details: 200 ppm, foliar application to wheat plants, 10 mL per pot, 7 days after inoculation
row,SMILES,"control effect (control rate, lesion area) activity level"
1,CCS(=O)(=O)c1cc(C(F)(F)F)cnc1C(=O)N(c1ccc(C(F)(F)F)cn1)C1CC1 [Compound 1-15],D or higher
2,CCS(=O)(=O)c1cc(OC)ccc1C(=O)Nc1ccc(C(F)(C(F)(F)F)C(F)(F)F)cc1C [Compound 6-12],D or higher
3,CCSc1cc(C(F)(F)F)ccc1C(=O)Nc1ccc(C(F)(C(F)F)C(F)(F)F)cc1Cl (centres unmarked) [Compound 5-51],D or higher
4,CC[S+]([O-])c1cc(C(F)(F)F)ccc1C(=O)N(C)c1ccc(Cl)c(C(F)(F)F)c1 (centres unmarked) [Compound 3-31],D or higher
5,CCS(=O)(=O)c1cc(C(F)(F)F)ccc1C(=O)N(C)c1ccc(C(F)(F)C(F)(F)F)c(C)c1 [Compound 3-47],D or higher
6,CC[S+]([O-])c1cc(C(F)(F)F)ccc1C(=O)N(C)c1ccc(C(C)C)cc1 (centres unmarked) [Compound 3-19],D or higher
7,CC[S+]([O-])c1cc(C(F)(F)F)ccc1C(=O)Nc1ccc([Si](C)(C)C)cc1C (centres unmarked) [Compound 5-64],D or higher
8,CCS(=O)(=O)c1cc(C(F)(F)F)ccc1C(=O)N(C)c1ccc(C(F)(F)C(F)(F)F)c(C)c1C [Compound 3-50],D or higher
9,CC[S+]([O-])c1cc(C(F)(F)F)ccc1C(=O)Nc1ccc(C(F)(C(F)(F)F)C(F)(F)F)cc1Cl (centres unmarked) [Compound 4-27],D or higher
10,CC[S+]([O-])c1cc(SC(F)(F)F)ccc1C(=O)Nc1ccc(C(F)(C(F)(F)F)C(F)(F)F)cc1Cl (centres unmarked) [Compound 6-23],D or higher
11,CCSc1cc(C(F)(F)F)cnc1C(=O)N(CC)c1ccc(C(F)(F)F)cn1 [Compound 1-10],D or higher
12,CC[S+]([O-])c1cc(C(F)(F)F)ccc1C(=O)Nc1ccc(F)c(C(F)(F)F)c1F (centres unmarked) [Compound 4-21],D or higher
13,CCS(=O)(=O)c1cc(C(F)(F)F)ccc1C(=O)N(C)c1ccc(SC(F)(F)F)cc1 [Compound 3-17],D or higher
14,CCSc1cc(C(F)(F)F)ccc1C(=O)N(C)c1ccc(C(F)(C(F)(F)F)C(F)(F)F)nc1 [Compound 1-22],D or higher
15,CCS(=O)(=O)c1cc(C(F)(F)F)ccc1C(=O)Nc1ccc(F)c(C(F)(F)F)c1F [Compound 4-22],D or higher
16,CC[S+]([O-])c1cc(C(F)(F)F)ccc1C(=O)N(C)c1ccc(Cl)c(Cl)c1 (centres unmarked) [Compound 3-28],D or higher

row,SMILES,"control effect (control rate, lesion area) activity level"
1,CC[S+]([O-])c1cc(C(F)(F)F)ccc1C(=O)N(C)c1ccc(OC(F)(F)F)cc1 (centres unmarked) [Compound 3-13],D or higher
2,CCSc1cc(SC(F)(F)F)ccc1C(=O)Nc1ccc(C(F)(C(F)(F)F)C(F)(F)F)cc1Cl [Compound 6-22],D or higher
3,CCSc1cc(C(F)(F)F)ccc1C(=O)N(C)c1ccc(OC(F)(F)F)cc1 [Compound 3-12],D or higher
4,CC[S+]([O-])c1cc(C(F)(F)F)ccc1C(=O)Nc1ccc(OC(F)(F)F)cc1Br (centres unmarked) [Compound 5-73],D or higher
5,CCS(=O)(=O)c1cc(C(F)(F)F)ccc1C(=O)N(C)c1ccc(Cl)c(C(F)(F)F)c1 [Compound 3-32],D or higher
6,CCS(=O)(=O)c1cc(C(F)(F)F)ccc1C(=O)N(C)c1ccc(C(F)(C(F)(F)F)C(F)(F)F)cn1 [Compound 1-21],D or higher
7,CC[S+]([O-])c1cc(C(F)(F)F)ccc1C(=O)N(C)c1ccc(SC(F)(F)F)cc1 (centres unmarked) [Compound 3-16],D or higher
8,CC[S+]([O-])c1cc(C(F)(F)F)ccc1C(=O)Nc1ccc(OC(F)(F)C(F)F)cc1C (centres unmarked) [Compound 5-70],D or higher
9,CCS(=O)(=O)c1cc(SC(F)(F)F)ccc1C(=O)Nc1ccc(C(F)(C(F)(F)F)C(F)(F)F)cc1Cl [Compound 6-24],D or higher
10,CCS(=O)(=O)c1cc(C(F)(F)F)ccc1C(=O)Nc1ccc(C(F)(F)C(F)(F)C(F)(F)C(F)(F)F)cc1C [Compound 4-16],D or higher
11,CC[S+]([O-])c1cc(C(F)(F)F)cnc1C(=O)N(c1ccc(C(F)(F)F)cn1)C1CC1 (centres unmarked) [Compound 1-14],D or higher
12,CCc1cc(OC(F)(F)F)ccc1NC(=O)c1ccc(C(F)(F)F)cc1S(=O)(=O)CC [Compound 5-77],D or higher
13,CC[S+]([O-])c1cc(C(F)(F)F)ccc1C(=O)N(C)c1ccc(I)cc1F (centres unmarked) [Compound 3-34],D or higher
14,CCS(=O)(=O)c1cc(C(F)(F)F)ccc1C(=O)Nc1ccc(C(F)(C(F)(F)F)C(F)(F)Br)cc1Cl (centres unmarked) [Compound 5-59],D or higher
15,CCS(=O)(=O)c1cc(C(F)(F)F)ccc1C(=O)Nc1ccc(OC(F)(F)C(F)F)cc1C [Compound 5-71],D or higher
